Source: the supplement of paper PMC10307832

What was measured:
Assay in all cases: relative viability (nuclei count vs DMSO), 5 days (fraction); higher = more cells survive
Ponatinib + Olaparib = compound: Cc1ccc(C(=O)Nc2ccc(CN3CCN(C)CC3)c(C(F)(F)F)c2)cc1C#Cc1cnc2cccnn12 [Ponatinib] + O=C(c1cc(Cc2n[nH]c(=O)c3ccccc23)ccc1F)N1CCN(C(=O)C2CC2)CC1 [Olaparib] (partner 8 µM)
In short: (§1)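 Lung cancer cell lines in 1536-well plates got either a single drug or a fixed anchor-drug dose together with five library-drug doses (not always all listed) in √10 steps, by pin tool, on the day after seeding. Nuclei were counted after 5 days, and relative viability is the treated-to-vehicle ratio of nuclei counts. Values are medians of duplicate plates.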

Pazopanib + AZD7762 = compound: Cc1ccc(Nc2nccc(N(C)c3ccc4c(C)n(C)nc4c3)n2)cc1S(N)(=O)=O [Pazopanib] + NC(=O)Nc1cc(-c2cccc(F)c2)sc1C(=O)N[C@H]1CCCNC1 [AZD7762] (partner 0.2 µM)
In short: as §1

Ponatinib + Luminespib = compound: Cc1ccc(C(=O)Nc2ccc(CN3CCN(C)CC3)c(C(F)(F)F)c2)cc1C#Cc1cnc2cccnn12 [Ponatinib] + CCNC(=O)c1noc(-c2cc(C(C)C)c(O)cc2O)c1-c1ccc(CN2CCOCC2)cc1 [Luminespib] (partner 0.01 µM)
In short: as §1

Pazopanib + Pictilisib = compound: Cc1ccc(Nc2nccc(N(C)c3ccc4c(C)n(C)nc4c3)n2)cc1S(N)(=O)=O [Pazopanib] + CS(=O)(=O)N1CCN(Cc2cc3nc(-c4cccc5[nH]ncc45)nc(N4CCOCC4)c3s2)CC1 [Pictilisib] (partner 1 µM)
In short: as §1

| Cell Line | relative viability (Ponatinib + Olaparib; first compound 0.002 µM) | relative viability (Ponatinib + Olaparib; first compound 0.006325 µM) | relative viability (Ponatinib + Olaparib; first compound 0.06325 µM) | relative viability (Ponatinib + Olaparib; first compound 0.2 µM) | relative viability (Pazopanib + AZD7762; first compound 0.01 µM) | relative viability (Pazopanib + AZD7762; first compound 0.03162 µM) | relative viability (Pazopanib + AZD7762; first compound 0.1 µM) | relative viability (Pazopanib + AZD7762; first compound 0.3162 µM) | relative viability (Pazopanib + AZD7762; first compound 1 µM) | relative viability (Ponatinib + Luminespib; first compound 0.002 µM) | relative viability (Ponatinib + Luminespib; first compound 0.006325 µM) | relative viability (Ponatinib + Luminespib; first compound 0.06325 µM) | relative viability (Ponatinib + Luminespib; first compound 0.2 µM) | relative viability (Pazopanib + Pictilisib; first compound 0.01 µM) | relative viability (Pazopanib + Pictilisib; first compound 0.03162 µM) | relative viability (Pazopanib + Pictilisib; first compound 0.1 µM) | relative viability (Pazopanib + Pictilisib; first compound 0.3162 µM) | relative viability (Pazopanib + Pictilisib; first compound 1 µM) |
| --- | --- | --- | --- | --- | --- | --- | --- | --- | --- | --- | --- | --- | --- | --- | --- | --- | --- | --- |
| NCI-H1915 | 0.254 | 0.275 | 0.278 | 0.234 | 0.716 | 0.658 | 0.667 | 0.68 | 0.616 | 0.754 | 0.769 | 0.805 | 0.672 | 0.905 | 0.972 | 0.976 | 0.971 | 0.899 |
| NCI-H1944 | 0.378 | 0.455 | 0.427 | 0.441 | 0.442 | 0.504 | 0.595 | 0.571 | 0.555 | 0.666 | 0.684 | 0.833 | 0.743 | 0.303 | 0.346 | 0.344 | 0.39 | 0.358 |
| LXF-289 | 0.97 | 1.05 | 1.06 | 1.06 | 1.26 | 1.15 | 1.12 | 1.11 | 1.06 | 0.598 | 0.661 | 0.774 | 0.641 | 0.701 | 0.784 | 0.778 | 0.735 | 0.822 |
| PC-3 [JPC-3] | – | 1.15 | 1.3 | 1.09 | – | 0.742 | 0.725 | 0.926 | 0.937 | 0.649 | 0.697 | 0.811 | 0.668 | 0.745 | 0.707 | 0.808 | 0.73 | 0.716 |
| NCI-H1666 | 0.749 | 0.76 | 0.733 | 0.664 | 0.871 | 0.828 | 0.788 | 0.823 | 0.848 | 1.02 | 0.998 | 1.09 | 0.986 | 0.369 | 0.307 | 0.379 | 0.421 | 0.426 |
| NCI-H2085 | 0.808 | 0.814 | 0.9 | 0.754 | 0.98 | 0.988 | 0.928 | 0.952 | 1.06 | 0.459 | 0.459 | 0.446 | 0.432 | 0.413 | 0.463 | 0.47 | 0.429 | 0.443 |
| NCI-H1734 | 0.62 | 0.618 | 0.673 | 0.488 | 0.519 | 0.561 | 0.555 | 0.689 | 0.623 | 0.195 | 0.181 | 0.186 | 0.173 | 0.385 | 0.448 | 0.437 | 0.53 | 0.461 |
| NCI-H2126 | 0.902 | 0.904 | 0.967 | 0.847 | 0.963 | 0.947 | 1.07 | 0.959 | 1.04 | 0.874 | 0.955 | 1.04 | 0.873 | 0.443 | 0.472 | 0.559 | 0.444 | 0.531 |
| EMC-BAC-2 | 0.434 | 0.455 | 0.482 | 0.398 | – | 1.14 | 1.09 | 1.14 | 1.2 | 1.06 | 1.15 | 1.28 | 1.07 | 0.457 | 0.576 | 0.623 | 0.579 | 0.604 |
| NCI-H1993 | 1.01 | 1.01 | 1.16 | 1.12 | – | 0.789 | 0.734 | 0.883 | 0.645 | 0.778 | 0.921 | 0.991 | 0.932 | 0.8 | 0.828 | 0.709 | 0.801 | 0.789 |
| NCI-H596 | 0.662 | 0.72 | 0.787 | 0.661 | 0.925 | 1.1 | 1.03 | 1.16 | 1.03 | 1.06 | 1.07 | 1.01 | 0.686 | 0.383 | 0.379 | 0.417 | 0.381 | 0.39 |
| NCI-H650 | 0.344 | 0.417 | 0.452 | 0.401 | 0.948 | 1.07 | 1.09 | 0.942 | 0.904 | 0.807 | 0.783 | 0.958 | 0.775 | 0.789 | 0.838 | 0.92 | 0.836 | 0.79 |
| NCI-H1792 | 0.44 | 0.587 | 0.489 | 0.313 | – | 0.704 | 0.701 | 0.67 | 0.662 | 0.354 | 0.422 | 0.465 | 0.389 | – | 0.271 | 0.276 | 0.282 | 0.309 |
| ChaGo-K-1 | 0.438 | 0.486 | 0.41 | 0.436 | 0.859 | 0.859 | 0.971 | 0.82 | 0.865 | 0.562 | 0.651 | 0.571 | 0.553 | 0.543 | 0.876 | 0.632 | 0.613 | 0.759 |
| LOU-NH91 | 0.898 | 0.919 | 1.03 | 0.879 | 0.653 | 0.758 | 0.78 | 0.836 | 0.815 | 0.317 | 0.318 | 0.393 | 0.404 | 0.501 | 0.534 | 0.502 | 0.568 | 0.543 |
| NCI-H3122 | 0.507 | 0.634 | 0.564 | 0.592 | 0.962 | 0.952 | 1.1 | 0.95 | 0.987 | 0.113 | 0.0854 | 0.128 | 0.109 | 0.516 | 0.638 | 0.689 | 0.688 | 0.803 |
| LCLC-97TM1 | 0.48 | 0.452 | 0.385 | 0.334 | – | 0.241 | 0.248 | 0.303 | 0.188 | 0.677 | 0.704 | 0.647 | 0.439 | – | 0.196 | 0.195 | 0.201 | 0.179 |
| NCI-H647 | 0.521 | 0.527 | 0.615 | 0.522 | 0.373 | 0.635 | 0.469 | 0.428 | 0.546 | 0.136 | 0.225 | 0.158 | 0.234 | 0.319 | 0.532 | – | 0.542 | 0.508 |
